Data: PubChem BioAssay AID652167 (The Scripps Research Institute Molecular Screening Center, 2013)
The source made the active and inactive calls. The rule behind the calls is not given here.

Legend:
[1] = cell viability loss, WST reduction – absorbance, cytotoxicity control for NOD2-RIPK2 interaction inhibitor project, late-stage follow-up (AID 652167); conditions: WST cytotoxicity, absorbance 620 nm; WST absorbance; at 10 µM; stronger effect = lower value
[2] = system: WST cytotoxicity, absorbance 620 nm; assay: as above

Compound	absorbance [1]	IC50 [2]
O=[N+]([O-])c1cccc(S(=O)(=O)N2CCCCCC2)c1	0.999	> 10 µM (inactive)
Cc1ncc([N+](=O)[O-])n1Cc1ccc(Cl)c(Cl)c1	1.01	> 10 µM (inactive)
O=S(=O)(c1ccc(F)cc1)N1CCCCCC1	1	> 10 µM (inactive)
O=S(=O)(c1ccccc1)N1CCCCCC1	0.969	> 10 µM (inactive)
Cc1nc([N+](=O)[O-])c(Br)n1Cc1ccccc1	0.991	> 10 µM (inactive)
Cc1ccc(S(=O)(=O)N2CCCCCC2)cc1[N+](=O)[O-]	0.99	> 10 µM (inactive)
O=[N+]([O-])c1cc(S(=O)(=O)N2CCCCCC2)ccc1F	0.991	> 10 µM (inactive)
COc1ccc(C(C[N+](=O)[O-])n2nc(C)cc2C)cc1 (configuration not stated)	0.973	> 10 µM (inactive)
Cc1ccc(C(C[N+](=O)[O-])n2nc(C)cc2C)cc1 (configuration not stated)	0.968	> 10 µM (inactive)
Cc1cc(S(=O)(=O)N2CCCCCC2)ccc1F	1	> 10 µM (inactive)
Cc1nc([N+](=O)[O-])c(Br)n1Cc1ccc(Cl)c(Cl)c1	0.974	> 10 µM (inactive)
